Data reported in patent US20260248772A1, “NOVEL SULFANONE DERIVATIVE OR PHARMACEUTICALLY ACCEPTABLE SALT THEREOF, AND USE THEREOF” (KOREA INSTITUTE OF SCIENCE AND TECHNOLOGY, priority 2022, published 2026).
Structures can show the parent of a compound that is named as a salt.

Columns and labels:
[1] = test system: BV-2 mouse microglial cells; experiment: NO (nitric oxide) inhibitory activity in LPS-treated microglial cells; assay type: cell-based; details: LPS 1 μg/ml, 24 hours, read-out: Amount of NO (% of control)
CYP2C19 = CYP2C19 (Homo sapiens, UniProt P33261); experiment: in vitro; details: human liver microsomes, pH 7.4, probe S-mephenytoin 100 μM (in five-substrate cocktail)
CYP2C19, sequence (P33261 whole entry): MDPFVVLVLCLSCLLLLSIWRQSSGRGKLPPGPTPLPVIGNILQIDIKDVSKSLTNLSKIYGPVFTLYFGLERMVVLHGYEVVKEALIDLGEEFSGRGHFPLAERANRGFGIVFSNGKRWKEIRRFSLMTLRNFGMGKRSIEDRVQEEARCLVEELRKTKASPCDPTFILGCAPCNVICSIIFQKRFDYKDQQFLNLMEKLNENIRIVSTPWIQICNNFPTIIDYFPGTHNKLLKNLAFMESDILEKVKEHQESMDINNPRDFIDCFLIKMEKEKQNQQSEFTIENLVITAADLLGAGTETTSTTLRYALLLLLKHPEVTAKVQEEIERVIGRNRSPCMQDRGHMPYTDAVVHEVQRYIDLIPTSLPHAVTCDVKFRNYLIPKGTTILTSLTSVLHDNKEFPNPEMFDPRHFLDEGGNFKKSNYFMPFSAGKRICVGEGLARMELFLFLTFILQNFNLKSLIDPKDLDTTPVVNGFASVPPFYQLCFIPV

CYP2D6 = CYP2D6 (Homo sapiens, UniProt P10635); experiment: in vitro; details: human liver microsomes, pH 7.4, probe Dextromethorphan 5 μM (in five-substrate cocktail)
CYP2D6, sequence (P10635 whole entry): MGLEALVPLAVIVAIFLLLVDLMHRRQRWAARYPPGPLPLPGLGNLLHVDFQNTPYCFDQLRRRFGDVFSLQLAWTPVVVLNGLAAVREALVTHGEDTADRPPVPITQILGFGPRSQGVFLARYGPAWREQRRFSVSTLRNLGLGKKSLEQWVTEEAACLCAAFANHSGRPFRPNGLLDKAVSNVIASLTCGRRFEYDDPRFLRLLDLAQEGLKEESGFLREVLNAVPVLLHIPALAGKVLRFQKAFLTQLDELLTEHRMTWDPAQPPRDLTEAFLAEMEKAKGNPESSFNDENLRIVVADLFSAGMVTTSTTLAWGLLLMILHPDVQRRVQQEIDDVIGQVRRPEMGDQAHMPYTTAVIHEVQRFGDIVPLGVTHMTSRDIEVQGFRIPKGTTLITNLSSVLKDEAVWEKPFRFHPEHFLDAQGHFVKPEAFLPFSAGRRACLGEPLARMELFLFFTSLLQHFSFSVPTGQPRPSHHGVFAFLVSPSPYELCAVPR

CYP3A4 = CYP3A4 (Homo sapiens, UniProt P08684); experiment: in vitro; details: human liver microsomes, pH 7.4, probe Midazolam […] (in five-substrate cocktail)
CYP3A4, sequence (P08684 whole entry): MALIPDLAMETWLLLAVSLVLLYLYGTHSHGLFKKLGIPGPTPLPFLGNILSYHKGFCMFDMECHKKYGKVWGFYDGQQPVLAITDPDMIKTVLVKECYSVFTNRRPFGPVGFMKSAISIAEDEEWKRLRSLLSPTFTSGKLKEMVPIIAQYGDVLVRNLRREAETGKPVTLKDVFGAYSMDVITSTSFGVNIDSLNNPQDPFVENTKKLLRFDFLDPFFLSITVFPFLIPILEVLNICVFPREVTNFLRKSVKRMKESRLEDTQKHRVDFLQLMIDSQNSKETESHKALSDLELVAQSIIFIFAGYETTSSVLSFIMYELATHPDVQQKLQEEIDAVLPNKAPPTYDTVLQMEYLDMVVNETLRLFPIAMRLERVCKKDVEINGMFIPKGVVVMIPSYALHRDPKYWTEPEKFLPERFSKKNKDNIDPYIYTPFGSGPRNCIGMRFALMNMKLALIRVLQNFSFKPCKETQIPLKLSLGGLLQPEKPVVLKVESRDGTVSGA

CYP1A2 = biological target: T1, CYP1A2 (Homo sapiens, UniProt P05177); experiment: in vitro; details: human liver microsomes, pH 7.4, probe Phenacetin 50 μM (in five-substrate cocktail)
T1 sequence (P05177 1-516): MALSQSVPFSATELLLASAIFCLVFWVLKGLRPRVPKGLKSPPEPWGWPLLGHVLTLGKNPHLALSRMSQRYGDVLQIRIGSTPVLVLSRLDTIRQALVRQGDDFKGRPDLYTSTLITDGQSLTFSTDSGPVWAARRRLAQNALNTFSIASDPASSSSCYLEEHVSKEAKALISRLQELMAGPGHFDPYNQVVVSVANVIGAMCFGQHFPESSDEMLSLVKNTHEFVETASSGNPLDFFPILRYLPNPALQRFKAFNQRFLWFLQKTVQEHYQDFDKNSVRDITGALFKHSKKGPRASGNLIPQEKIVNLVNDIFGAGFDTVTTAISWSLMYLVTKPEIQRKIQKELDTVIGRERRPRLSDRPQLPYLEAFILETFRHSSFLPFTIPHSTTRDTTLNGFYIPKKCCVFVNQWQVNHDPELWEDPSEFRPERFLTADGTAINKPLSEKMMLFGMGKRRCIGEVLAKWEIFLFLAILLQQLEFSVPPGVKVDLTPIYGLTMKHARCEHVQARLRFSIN

CYP2C9 = CYP2C9 (Homo sapiens, UniProt P11712); experiment: in vitro; details: human liver microsomes, pH 7.4, probe Diclofenac 10 μM (in five-substrate cocktail)
CYP2C9, sequence (P11712 whole entry): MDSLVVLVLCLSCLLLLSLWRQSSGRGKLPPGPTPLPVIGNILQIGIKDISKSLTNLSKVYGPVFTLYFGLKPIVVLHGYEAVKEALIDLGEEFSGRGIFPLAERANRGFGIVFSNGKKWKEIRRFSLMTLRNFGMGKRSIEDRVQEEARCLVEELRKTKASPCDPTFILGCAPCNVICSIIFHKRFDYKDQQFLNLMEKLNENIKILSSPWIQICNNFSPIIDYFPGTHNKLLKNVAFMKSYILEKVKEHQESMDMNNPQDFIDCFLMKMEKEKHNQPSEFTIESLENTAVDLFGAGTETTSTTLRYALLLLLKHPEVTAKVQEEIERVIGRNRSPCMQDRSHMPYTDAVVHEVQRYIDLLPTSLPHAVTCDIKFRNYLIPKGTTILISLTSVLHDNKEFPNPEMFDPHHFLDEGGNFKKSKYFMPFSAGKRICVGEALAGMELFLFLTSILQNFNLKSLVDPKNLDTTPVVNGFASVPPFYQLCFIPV

[2] = Metabolic stability using liver microsomes; assay type: in vitro ADME, Human; details: for drug remaining after incubation with microsomes: after 30 minutes; for Human (% remaining): liver microsomes, 30 minutes at 37° C.
Nrf2 = Nrf2 functional cell-based assay (DiscoveRx), luminescence; details: U2OS cells; for EC50: 6 hours incubation, read-out: Nrf2 activation EC50
[3] = known; cited from earlier work
[4] = Metabolic stability using liver microsomes; assay type: in vitro ADME, Mouse; details: 30 minutes
[5] = Metabolic stability using liver microsomes; assay type: in vitro ADME, Rat; details: 30 minutes
Description: Therefore, in order to predict the extent of drug metabolism by the liver, the main organ for drug metabolism, through in vitro experiments, the metabolic stability of drugs was evaluated using liver microsomes.
Then, an NADPH regeneration system solution was added thereto and the mixed solution was incubated at 37° C. for 30 minutes.

SMILES | activity at 10 µM [1] [%] | activity at 15 min, 10 µM (CYP2C19) [%] | activity at 15 min, 10 µM (CYP2D6) [%] | activity at 15 min, 10 µM (CYP3A4) [%] | activity at 15 min, 10 µM (CYP1A2) [%] | activity at 15 min, 10 µM (CYP2C9) [%] | further results
N=S(=O)(/C=C/c1ccccn1)c1ccccc1F (stereo not drawn) [Compound 1-1, (E)-(2-Fluorophenyl)(imino)(2-(pyridin-2-yl)vinyl)-λ^6-sulfanone] | < 3 | 66.9 | 82.7 | 121 | 87.8 | 85.7 | activity at 0.1 µM [1]: 97%; activity at 1 µM [1]: 74.2%
COc1ccc(S(=N)(=O)/C=C/c2ccccn2)cc1 (stereo not drawn) [Compound 1-2, (E)-Imino(4-methoxyphenyl)(2-(pyridin-2-yl)vinyl)-λ^6-sulfanone] | 35.8 | 70.4 | 98.6 | 97.5 | 88.9 | 96.6 | activity at 0.1 µM [1]: 110%; activity at 1 µM [1]: 115%; drug remaining after incubation with microsomes [2]: remained at a high concentration
N=S(=O)(/C=C/c1ncccc1Cl)c1ccccc1Cl (stereo not drawn) [Compound 1-4, (E)-(2-chlorophenyl)(2-(3-chloropyridin-2-yl)vinyl)(imino)-λ^6-sulfanone] |  |  |  |  |  |  | drug remaining after incubation with microsomes [2]: remained at a high concentration
N=S(=O)(/C=C/c1ncccc1F)c1ccccc1F (stereo not drawn) [Compound 1-5, (E)-(2-fluorophenyl)(2-(3-fluoropyridin-2-yl)vinyl)(imino)-λ^6-sulfanone] | 7.96 |  |  |  |  |  | activity at 0.1 µM [1]: 101%; activity at 1 µM [1]: 69.2%
COc1ccccc1S(=N)(=O)/C=C/c1ncccc1Cl (stereo not drawn) [Compound 1-8, (E)-(2-(3-chloropyridin-2-yl)vinyl)(imino)(2-methoxyphenyl)-λ^6-sulfanone] | 14.2 | 24.4 | 93.9 | 78.4 | 84.4 | 192 | 
COc1ccc(S(=N)(=O)/C=C/c2ncccc2Cl)cc1 (stereo not drawn) [Compound 1-10, (E)-(2-(3-chloropyridin-2-yl)vinyl)(imino)(4-methoxyphenyl)-λ^6-sulfanone] | < 3 | 6 | 112 | 109 | 103 | 133 | 
N=S(=O)(/C=C/c1cccnc1)c1ccccc1Cl (stereo not drawn) [Compound 1-12, (E)-(2-chlorophenyl)(imino)(2-(pyridin-3-yl)vinyl)-λ^6-sulfanone] |  | 68.2 | 94.4 | 104 | 86.8 | 87.1 | EC50 (Nrf2): > 10000 nM
N=S(=O)(/C=C/c1cccnc1Cl)c1ccccc1Cl (stereo not drawn) [Compound 1-13, (E)-(2-chlorophenyl)(2-(2-chloropyridin-3-yl)vinyl)(imino)-λ^6-sulfanone] | 9.26 | 27.8 | 95.7 | 59.8 | 93.3 | 169 | 
N=S(=O)(/C=C/c1cccc(Cl)c1)c1ccccn1 (stereo not drawn) [Compound 1-16, (E)-(3-chlorostyryl)(imino)(pyridin-2-yl)-λ^6-sulfanone] | < 3 |  |  |  |  |  | 
N=S(=O)(/C=C/c1ccccc1C(F)(F)F)c1ccccn1 (stereo not drawn) [Compound 1-17, (E)-imino(pyridin-2-yl)(2-(trifluoromethyl)styryl)-λ^6-sulfanone] | < 3 |  |  |  |  |  | 
N=S(=O)(/C=C/c1ccccc1OC(F)(F)F)c1ccccn1 (stereo not drawn) [Compound 1-18, (E)-imino(pyridin-2-yl)(2-(trifluoromethoxy)styryl)-λ^6-sulfanone] | < 3 |  |  |  |  |  | 
N=S(=O)(/C=C/c1ccc(Cl)cc1)c1ccccn1 (stereo not drawn) [Compound 1-20, (E)-(4-chlorostyryl)(imino)(pyridin-2-yl)-λ^6-sulfanone] | 20.3 |  |  |  |  |  | 
C[Si](C)(C)N=S(=O)(/C=C/c1ccccc1Cl)c1ccncc1F (stereo not drawn) [Compound 1-46, (E)-(2-chlorostyryl)(3-fluoropyridin-4-yl)((trimethylsilyl)imino)-λ^6-sulfanone] |  |  |  |  |  |  | Nrf2 activation effect compared with Sulforaphane (Nrf2): better Nrf2 activation effect than Sulforaphane
N=S(=O)(/C=C/c1ncccc1F)c1ccc(OCCCN2CCOCC2)cn1 (stereo not drawn) [Compound 1-53, (E)-(2-(3-fluoropyridin-2-yl)vinyl)(imino)(5-(3-morpholinopropoxy)pyridin-2-yl)-λ^6-sulfanone] |  |  |  |  |  |  | EC50 (Nrf2): 604 nM
COc1ccccc1S(=O)(/C=C/c1ccccc1Cl)=NC#N (stereo not drawn) [Compound 1-57, (E)-N-((2-chlorostyryl)(2-methoxyphenyl)(oxo)-λ^6-sulfanylidene)cyanamide] |  |  |  |  |  |  | Nrf2 activation effect compared with Sulforaphane (Nrf2): better Nrf2 activation effect than Sulforaphane
COc1ccccc1S(=O)(/C=C/c1ncccc1Cl)=NC#N (stereo not drawn) [Compound 1-58, (E)-N-((2-(3-chloropyridin-2-yl)vinyl)(2-methoxyphenyl)(oxo)-λ^6-sulfaneylidene)cyanamide] |  |  |  |  |  |  | EC50 (Nrf2): 658 nM
COC(=O)/C=C/C(=O)OC [DMF, Dimethyl fumarate, reference compound] | 16.3 |  |  |  |  |  | activity at 0.1 µM [1]: 113%; activity at 1 µM [1]: 60%
C[S+]([O-])CCCCN=C=S (stereo not drawn) [Sulforaphane, 1-isothiocyanato-4-methylsulfinylbutane] |  |  |  |  |  |  | concentration at which high toxicity is exhibited [3]: ≥ 5 M
O=S(=O)(/C=C/c1ncccc1Cl)c1ccccc1F [drawing 157, reference compound] |  | 16.6 | 86.1 | 105 | 95.8 | 45.5 | 
O=S(=O)(/C=C/c1ncccc1Cl)c1ccccc1F [drawing 173] |  |  |  |  |  |  | Mouse (% remaining) [4]: 19 % remaining; Human (% remaining) [2]: 72 % remaining; Rat (% remaining) [5]: 23 % remaining
O=S(=O)(/C=C/c1ccccn1)c1ccccc1F [reference compound] |  | 38.4 | 92.4 | 104 | 93 | 230 | 
COc1ccccc1S(=O)(=O)/C=C/c1ncccc1Cl [reference compound] |  |  |  |  |  | 209 | 
COc1ccc(S(=O)(=O)/C=C/c2ncccc2Cl)cc1 [reference compound] |  |  |  |  |  | 196 | 
O=S(=O)(/C=C/c1cccnc1)c1ccccc1Cl [reference compound] |  | 33.4 | 101 | 74.2 | 84 | 118 | 
O=S(=O)(/C=C/c1cccnc1Cl)c1ccccc1Cl [reference compound] |  | 28.3 | 93.8 | 81.2 | 85.6 | 88.7 | 
O=S(=O)(/C=C/c1ncccc1Cl)c1ccccc1Cl [reference compound] |  |  |  |  |  |  | Mouse (% remaining) [4]: 4.5 % remaining; Human (% remaining) [2]: 66 % remaining
